Consider one compound from PMC7083565, “In vitro metabolism, reaction phenotyping, enzyme kinetics, CYP inhibition and induction potential of ataluren” (Pharmacology Research & Perspectives, 2020).

The nature of data set [1]: Glucuronidation in pooled human kidney microsomes. The format is in vitro ADME. As to conditions: kidney microsomes 1 mg protein/mL, 10 μmol/L, 60 minutes, n = 1. Here is the method: Ataluren at 10 μmol/L, was incubated (n = 1) with pooled human intestinal, lung, and kidney microsomes (1 mg protein/mL, preactivated with alamethicin) to evaluate if ataluren‐O‐1β‐acyl glucuronide will be formed in these extrahepatic tissues. Incubation mixtures and procedures were essentially the same as the above. The supernatant fractions were analyzed by LC‐MS/MS to quantify the formation of ataluren‐O‐1β‐acyl glucuronide and the loss of ataluren. Detailed LC‐MS/MS conditions are summarized in LC‐MS/MS Analysis section. […] The ataluren acyl glucuronide formation rate after 60 minutes incubation was calculated using the amount of metabolite formed (pmol) divided by the protein amount in the incubation sample ([…]) and the incubation time (60 minutes).
Quantification of ataluren loss and ataluren‐O‐1β‐acyl glucuronide formation was carried out with an LC‐MS/MS system, which consisted of two Shimadzu LC‐10ADvp pumps, a SPD10‐AVP UV/Vis detector, a Shimadzu SILHTA autosampler, a Shimadzu DGU‐14A degasser, and a Sciex API 4000 QTRAP mass spectrometer equipped with a Turbo Ionspray ionization source that operated in positive ionization mode. […] Ion transitions monitored were at m/z 285 → m/z 123 for ataluren, m/z 461 → m/z 285 for ataluren acyl glucuronide, and m/z 289 → m/z 127 for ataluren‐D4 (internal standard), respectively.

The next data set deals with T1, CYP2B6 (Homo sapiens, UniProt P20813).
T1 construct: tissue XenoTech LLC, Celsis-In Vitro Technologies, or Tissue Transformation Technologies; host or cells: pooled human liver microsomes
T1 sequence (P20813 1-491): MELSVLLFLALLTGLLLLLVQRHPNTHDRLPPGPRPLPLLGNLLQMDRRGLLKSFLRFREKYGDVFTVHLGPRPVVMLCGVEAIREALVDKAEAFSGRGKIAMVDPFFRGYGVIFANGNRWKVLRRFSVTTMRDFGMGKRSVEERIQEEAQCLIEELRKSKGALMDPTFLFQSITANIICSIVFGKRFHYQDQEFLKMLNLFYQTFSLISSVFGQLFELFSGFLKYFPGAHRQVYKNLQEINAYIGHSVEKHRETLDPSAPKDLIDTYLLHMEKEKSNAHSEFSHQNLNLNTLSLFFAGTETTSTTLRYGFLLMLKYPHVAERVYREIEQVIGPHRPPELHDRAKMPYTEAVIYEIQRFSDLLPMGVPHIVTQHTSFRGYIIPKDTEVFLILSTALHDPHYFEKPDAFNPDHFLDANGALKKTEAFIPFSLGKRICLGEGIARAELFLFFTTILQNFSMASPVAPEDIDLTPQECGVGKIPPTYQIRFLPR
The experiment in a line: CYP inhibition in pooled human liver microsomes: CYP2B6. The class given is in vitro ADME. As to conditions: CYP2B6, HLM, estimated, concentrations up to 400 μmol/L. Here is the method: The final concentration of each probe substrate was near the experimentally determined Km value for the indicated enzyme. Ataluren or prototypical CYP inhibitors (positive controls) was incubated (n = 3) with probe substrates and HLM in 100 mmol/L phosphate buffer (pH 7.4) in a total volume of approximately 0.25 mL, and the reactions were initiated by the addition of 1 mmol/L NADPH at 37°C. The reactions were carried out using previously established conditions to ensure linearity with respect to protein concentration and incubation time (Table S1). Incubations were stopped with the addition of ice‐cold acetonitrile. Metabolite formation in incubations with test compound and control inhibitors was assessed with LC‐MS/MS methods for each of the reaction products as described in Table S2. […] After 7 minutes incubation at 37°C, the reaction was stopped by the addition of ice‐cold acetonitrile, followed by membrane plate filtration. The filtrates were used for LC‐MS/MS analysis. […] IC50 values were determined by nonlinear regression with GraphPad Prism 5 using the following four‐parameter sigmoidal‐logistic IC50 equation: Fit=background+range-background/[1+I/IC50^slope]
(§1) Where, I is the inhibitor concentration, and background was set to 0 and range to 100, as percent of control values are utilized. K i was determined by nonlinear regression with GraphPad Prism 5 using best fit model.

Another data set concerns the target T2, CYP2C9 (Homo sapiens, UniProt P11712).
T2 construct: tissue XenoTech LLC, Celsis-In Vitro Technologies, or Tissue Transformation Technologies; host or cells: pooled human liver microsomes
The experiment in a line: CYP inhibition in pooled human liver microsomes: CYP2C9. The class given is in vitro ADME. Here is the method: (§2) The final concentration of each probe substrate was near the experimentally determined Km value for the indicated enzyme. Ataluren or prototypical CYP inhibitors (positive controls) was incubated (n = 3) with probe substrates and HLM in 100 mmol/L phosphate buffer (pH 7.4) in a total volume of approximately 0.25 mL, and the reactions were initiated by the addition of 1 mmol/L NADPH at 37°C. The reactions were carried out using previously established conditions to ensure linearity with respect to protein concentration and incubation time (Table S1). Incubations were stopped with the addition of ice‐cold acetonitrile. Metabolite formation in incubations with test compound and control inhibitors was assessed with LC‐MS/MS methods for each of the reaction products as described in Table S2. […] After 7 minutes incubation at 37°C, the reaction was stopped by the addition of ice‐cold acetonitrile, followed by membrane plate filtration. The filtrates were used for LC‐MS/MS analysis. Enzyme activity remaining at each nonzero ataluren concentration after incubation was normalized against control sample (zero ataluren concentration, enzyme activity = 100%), and the % remaining enzyme activity values were used for IC50 calculation. IC50 values were determined by nonlinear regression with GraphPad Prism 5 using the following four‐parameter sigmoidal‐logistic IC50 equation: Fit=background+range-background/[1+I/IC50^slope]
as §1

The test system of a further data set is CYP3A4/5. Briefly: CYP inhibition in pooled human liver microsomes: CYP3A4/5. The format is in vitro ADME. On the procedure: as §2, §1
A short description of data set [2]: Steady-state plasma Cmax in DMD patients. The class given is in vivo, human.

SMILES strings stand for the structures.

T2 sequence (P11712 whole entry): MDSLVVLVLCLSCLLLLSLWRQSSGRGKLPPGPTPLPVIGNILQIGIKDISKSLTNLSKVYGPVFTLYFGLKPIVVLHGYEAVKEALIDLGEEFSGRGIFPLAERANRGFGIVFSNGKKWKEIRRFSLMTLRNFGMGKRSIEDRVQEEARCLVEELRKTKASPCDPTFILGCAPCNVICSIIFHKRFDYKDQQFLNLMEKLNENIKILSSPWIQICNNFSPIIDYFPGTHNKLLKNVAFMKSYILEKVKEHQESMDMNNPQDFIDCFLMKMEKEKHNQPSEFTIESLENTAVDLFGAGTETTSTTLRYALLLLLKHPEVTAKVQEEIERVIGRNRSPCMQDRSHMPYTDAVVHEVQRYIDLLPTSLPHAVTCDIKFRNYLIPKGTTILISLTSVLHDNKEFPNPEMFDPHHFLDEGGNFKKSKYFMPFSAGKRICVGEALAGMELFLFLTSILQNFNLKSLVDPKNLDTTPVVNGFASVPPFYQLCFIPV

In data set [1], `O=C(O)c1cccc(-c2noc(-c3ccccc3F)n2)c1` [ataluren, Ataluren] came in with an ataluren loss of 94.3%. For the same compound, the IC50 on CYP2B6 is > 400 µM; against CYP2C9 (Diclofenac 4′-hydroxylase, pooled HLM, n=3, (95% confidence interval)), 135 µM; on CYP2C9 (human, pooled human liver microsomes, pH 7.4, CYP2C9, HLM), 134 µM; with CYP3A4/5 (pH 7.4, CYP3A4/5, HLM, estimated, concentrations up to 400 μmol/L, substrate not stated), > 400 µM; in the data set on CYP3A4/5 (pH 7.4, probe midazolam (1′-hydroxylation), Midazolam 1′-hydroxylase, pooled HLM, n=3) it was > 400 µM; in the data set with CYP3A4/5 (pH 7.4, probe testosterone (6β-hydroxylation), Testosterone 6β-hydroxylase, pooled HLM, n=3), > 400 µM. In addition, at CYP2C9 (CYP2C9, competitive, mean ± SE, n = 3), the inhibition constant (Ki) was determined as 75.4 ± 4.42 µM. Besides, the mechanism of inhibition result at CYP2C9 (CYP2C9, tolbutamide methyl hydroxylase) is reported as “competitive inhibitor”. In addition, the “free Cmax at the steady state” value in data set [2] (conservative, assuming free fraction value of 1%) was ~800 nM; in data set [2] (using free fraction value of 0.4% as measured), “around 0.32 µmol/L”.
